According to US20230085307A1, “PYRIDAZINONE COMPOUND AND HERBICIDE” (NISSAN CHEMICAL CORPORATION, priority 2019, published 2023):

Key:
oval-leafed pondweed = experiment: Test Example 1: herbicidal activity, application before weed generation under submerged conditions (Table 16, symbol C); type: in vivo, oval-leafed pondweed (Monochoria vaginalis)
Summary of the method: (§1)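 Submerged Wagner pots (alluvial soil, 4 cm water) sown with weed seeds and planted with 2.5-leaf rice seedlings; emulsifiable concentrate diluted in water applied to water surface on sowing day. Held in greenhouse at 25-30 °C; injury scored 0-5 by herbicidal rate after three weeks.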

redroot pigweed = experiment: Test Example 4: herbicidal effect by soil treatment (Table 19, symbol N); type: in vivo, redroot pigweed (Amaranthus retroflexus)
Summary of the method: (§2)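 Soil-surface application: an emulsion agent diluted with water to the predetermined dose is sprayed uniformly over seeds lying under roughly 1.5 cm of sterilized diluvial soil. Boxes stay in a greenhouse at 25° C. to 30° C. Three weeks later, each species is graded on previously defined criteria.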

wild oat [1] = experiment: Test Example 4: herbicidal effect by soil treatment (Table 19, symbol I); type: in vivo, wild oat (Avena fatua)
Summary of the method: as §2

chickweed = experiment: Test Example 4: herbicidal effect by soil treatment (Table 19, symbol P); type: in vivo, common chickweed (Stellaria media)
Summary of the method: as §2

windgrass [2] = experiment: Test Example 4: herbicidal effect by soil treatment (Table 19, symbol L); type: in vivo, windgrass (Apera spica-venti)
Summary of the method: as §2

velvetleaf [3] = experiment: Test Example 5: herbicidal effect by foliage application, plastic box (Table 20, symbol M); type: in vivo, velvetleaf (Abutilon theophrasti); settings: foliage application, 320 g/ha
Summary of the method: (§3)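 Sow seeds spot-wise in sterilized diluvial soil; cover with ~1.5 cm soil. Grow 14 days in greenhouse, 25° C. to 30° C. Spray foliage with emulsion diluted to predetermined amount. Rate effect after 3 weeks.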

late watergrass = experiment: Test Example 1: herbicidal activity, application before weed generation under submerged conditions (Table 16, symbol A); type: in vivo, late watergrass (Echinochloa oryzicola)
Summary of the method: as §1

Italian ryegrass [4] = experiment: Test Example 4: herbicidal effect by soil treatment (Table 19, symbol K); type: in vivo, Italian ryegrass (Lolium multiflorum)
Summary of the method: as §2

persian speedwell [5] = experiment: Test Example 4: herbicidal effect by soil treatment (Table 19, symbol R); type: in vivo, Persian speedwell (Veronica persica)
Summary of the method: as §2

barnyard grass [6] = experiment: Test Example 3: herbicidal effect by foliage application, Wagner pot (Table 18, symbol H); type: in vivo, barnyard grass (Echinochloa crus-galli); settings: 320 g/ha
Summary of the method: (§4)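 Plants were sown in alluvial soil held under 0.1–0.5 cm standing water and grown 14 days in a greenhouse at 25–30 °C. An emulsifiable formulation, water-diluted to the set dose, was then sprayed onto the foliage, and effects were scored three weeks later using previously defined criteria.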

green foxtail [7] = experiment: Test Example 4: herbicidal effect by soil treatment (Table 19, symbol G); type: in vivo, green foxtail (Setaria viridis)
Summary of the method: as §2

barnyard grass [8] = experiment: Test Example 5: herbicidal effect by foliage application, plastic box (Table 20, symbol H); type: in vivo, barnyard grass (Echinochloa crus-galli); settings: foliage application, 320 g/ha
Summary of the method: as §3

blackgrass [9] = experiment: Test Example 4: herbicidal effect by soil treatment (Table 19, symbol J); type: in vivo, blackgrass (Alopecurus myosuroides)
Summary of the method: as §2

blackgrass [10] = experiment: Test Example 5: herbicidal effect by foliage application, plastic box (Table 20, symbol J); type: in vivo, blackgrass (Alopecurus myosuroides); settings: foliage application, 320 g/ha
Summary of the method: as §3

lambsquarters [11] = experiment: Test Example 5: herbicidal effect by foliage application, plastic box (Table 20, symbol O); type: in vivo, lambsquarters (Chenopodium album); settings: foliage application, 320 g/ha
Summary of the method: as §3

velvetleaf [12] = experiment: Test Example 4: herbicidal effect by soil treatment (Table 19, symbol M); type: in vivo, velvetleaf (Abutilon theophrasti)
Summary of the method: as §2

wild oat [13] = experiment: Test Example 5: herbicidal effect by foliage application, plastic box (Table 20, symbol I); type: in vivo, wild oat (Avena fatua); settings: foliage application, 320 g/ha
Summary of the method: as §3

green foxtail [14] = experiment: Test Example 5: herbicidal effect by foliage application, plastic box (Table 20, symbol G); type: in vivo, green foxtail (Setaria viridis); settings: foliage application, 320 g/ha
Summary of the method: as §3

Japanese bulrush = experiment: Test Example 1: herbicidal activity, application before weed generation under submerged conditions (Table 16, symbol B); type: in vivo, Japanese bulrush (Schoenoplectus juncoides)
Summary of the method: as §1

windgrass [15] = experiment: Test Example 5: herbicidal effect by foliage application, plastic box (Table 20, symbol L); type: in vivo, windgrass (Apera spica-venti); settings: foliage application, 320 g/ha, 3 weeks after application
Summary of the method: as §3

Chinese sprangletop = experiment: Test Example 3: herbicidal effect by foliage application, Wagner pot (Table 18, symbol D); type: in vivo, chinese sprangletop (Leptochloa chinensis); settings: 320 g/ha
Summary of the method: as §4

Italian ryegrass [16] = experiment: Test Example 5: herbicidal effect by foliage application, plastic box (Table 20, symbol K); type: in vivo, Italian ryegrass (Lolium multiflorum); settings: foliage application, 320 g/ha
Summary of the method: as §3

southern crabgrass [17] = experiment: Test Example 5: herbicidal effect by foliage application, plastic box (Table 20, symbol F); type: in vivo, southern crabgrass (Digitaria ciliaris); settings: foliage application, 320 g/ha
Summary of the method: as §3

southern crabgrass [18] = experiment: Test Example 4: herbicidal effect by soil treatment (Table 19, symbol F); type: in vivo, southern crabgrass (Digitaria ciliaris)
Summary of the method: as §2

rice flat sedge = experiment: Test Example 3: herbicidal effect by foliage application, Wagner pot (Table 18, symbol E); type: in vivo, rice flat sedge (Cyperus iria); settings: 320 g/ha
Summary of the method: as §4

persian speedwell [19] = experiment: Test Example 5: herbicidal effect by foliage application, plastic box (Table 20, symbol R); type: in vivo, Persian speedwell (Veronica persica); settings: foliage application, 320 g/ha
Summary of the method: as §3

barnyard grass [20] = experiment: Test Example 4: herbicidal effect by soil treatment (Table 19, symbol H); type: in vivo, barnyard grass (Echinochloa crus-galli)
Summary of the method: as §2

lambsquarters [21] = experiment: Test Example 4: herbicidal effect by soil treatment (Table 19, symbol O); type: in vivo, lambsquarters (Chenopodium album)
Summary of the method: as §2

[22] = amount of applied herbicide 320 g/ha

Cc1nn(C)c(=O)c(-c2c(-c3ccc(OC(C)C#N)cc3)sc3ccccc23)c1O (racemic) [1-236]
Herbicidal effect on C: oval-leafed pondweed (grade 0-5) (oval-leafed pondweed; 320 g/ha applied herbicide): 0 (Herbicidal rate of 5% or less (almost no effect)) | N: redroot pigweed, herbicidal effect rating (redroot pigweed; AAH 320 g/ha): 5 (Herbicidal rate of 90% or more (almost completely withered)) | I: wild oat, herbicidal effect rating (wild oat [1]; AAH 320 g/ha): 0 (Herbicidal rate of 5% or less (almost no effect)) | P: chickweed, herbicidal effect rating (chickweed; AAH 320 g/ha): 4 (Herbicidal rate of 70% or more and less than 90%) | L: windgrass, herbicidal effect rating (windgrass [2]; AAH 320 g/ha): 0 (Herbicidal rate of 5% or less (almost no effect)) | effect on velvetleaf (M) (velvetleaf [3]; 3 weeks after application): 5 (Herbicidal rate of 90% or more (almost completely withered)) | Herbicidal effect on A: late watergrass (grade 0-5) (late watergrass; 320 g/ha applied herbicide): 3 (Herbicidal rate of 40% or more and less than 70%) | K: Italian ryegrass, herbicidal effect rating (Italian ryegrass [4]; AAH 320 g/ha): 3 (Herbicidal rate of 40% or more and less than 70%) | R: persian speedwell, herbicidal effect rating (persian speedwell [5]; AAH 320 g/ha): 4 (Herbicidal rate of 70% or more and less than 90%) | herbicidal effect on H (barnyard grass), rating 0-5 (barnyard grass [6]): 5 (Herbicidal rate of 90% or more (almost completely withered)) | G: green foxtail, herbicidal effect rating (green foxtail [7]; AAH 320 g/ha): 4 (Herbicidal rate of 70% or more and less than 90%) | effect on barnyard grass (H) (barnyard grass [8]; 3 weeks after application): 5 (Herbicidal rate of 90% or more (almost completely withered)) | J: blackgrass, herbicidal effect rating (blackgrass [9]; AAH 320 g/ha): 0 (Herbicidal rate of 5% or less (almost no effect)) | effect on blackgrass (J) (blackgrass [10]; 3 weeks after application): 4 (Herbicidal rate of 70% or more and less than 90%) | effect on lambsquarters (O) (lambsquarters [11]; 3 weeks after application): 5 (Herbicidal rate of 90% or more (almost completely withered)) | M: velvetleaf, herbicidal effect rating (velvetleaf [12]; AAH 320 g/ha): 1 (Herbicidal rate of 5% or more and less than 20%) | effect on wild oat (I) (wild oat [13]; 3 weeks after application): 5 (Herbicidal rate of 90% or more (almost completely withered)) | effect on green foxtail (G) (green foxtail [14]; 3 weeks after application): 4 (Herbicidal rate of 70% or more and less than 90%) | Herbicidal effect on B: Japanese bulrush (grade 0-5) (Japanese bulrush; 320 g/ha applied herbicide): 0 (Herbicidal rate of 5% or less (almost no effect)) | effect on windgrass (L) (windgrass [15]): 0 (Herbicidal rate of 5% or less (almost no effect)) | herbicidal effect on D (Chinese sprangletop), rating 0-5 (Chinese sprangletop): 5 (Herbicidal rate of 90% or more (almost completely withered)) | effect on Italian ryegrass (K) (Italian ryegrass [16]; 3 weeks after application): 5 (Herbicidal rate of 90% or more (almost completely withered)) | effect on southern crabgrass (F) (southern crabgrass [17]; 3 weeks after application): 4 (Herbicidal rate of 70% or more and less than 90%) | F: southern crabgrass, herbicidal effect rating (southern crabgrass [18]; AAH 320 g/ha): 4 (Herbicidal rate of 70% or more and less than 90%) | herbicidal effect on E (rice flat sedge), rating 0-5 (rice flat sedge): 5 (Herbicidal rate of 90% or more (almost completely withered)) | effect on persian speedwell (R) (persian speedwell [19]; 3 weeks after application): 5 (Herbicidal rate of 90% or more (almost completely withered)) | H: barnyard grass, herbicidal effect rating (barnyard grass [20]; AAH 320 g/ha): 5 (Herbicidal rate of 90% or more (almost completely withered)) | O: lambsquarters, herbicidal effect rating (lambsquarters [21]; AAH 320 g/ha): 4 (Herbicidal rate of 70% or more and less than 90%)

CCOc1cc(F)ccc1-c1sc2cc(OC)c(Cl)cc2c1-c1c(O)c(C)nn(C)c1=O [5-077]
Herbicidal effect, C: oval-leafed pondweed (oval-leafed pondweed; [22]): 4 (Herbicidal rate of 70% or more and less than 90%) | N: redroot pigweed, herbicidal effect grade (redroot pigweed; [22]): 3 (Herbicidal rate of 40% or more and less than 70%) | I: wild oat, herbicidal effect grade (wild oat [1]; [22]): 0 (Herbicidal rate of 5% or less (almost no effect)) | P: chickweed, herbicidal effect grade (chickweed; [22]): 0 (Herbicidal rate of 5% or less (almost no effect)) | L: windgrass, herbicidal effect grade (windgrass [2]; [22]): 0 (Herbicidal rate of 5% or less (almost no effect)) | herbicidal effect on velvetleaf (M) (velvetleaf [3]; three weeks after application): 3 (Herbicidal rate of 40% or more and less than 70%) | Herbicidal effect, A: late watergrass (late watergrass; [22]): 2 (Herbicidal rate of 20% or more and less than 40%) | K: Italian ryegrass, herbicidal effect grade (Italian ryegrass [4]; [22]): 0 (Herbicidal rate of 5% or less (almost no effect)) | R: persian speedwell, herbicidal effect grade (persian speedwell [5]; [22]): 0 (Herbicidal rate of 5% or less (almost no effect)) | herbicidal effect on barnyard grass (H) (barnyard grass [6]): 5 (Herbicidal rate of 90% or more (almost completely withered)) | G: green foxtail, herbicidal effect grade (green foxtail [7]; [22]): 0 (Herbicidal rate of 5% or less (almost no effect)) | herbicidal effect on barnyard grass (H) (barnyard grass [8]; three weeks after application): 5 (Herbicidal rate of 90% or more (almost completely withered)) | J: blackgrass, herbicidal effect grade (blackgrass [9]; [22]): 0 (Herbicidal rate of 5% or less (almost no effect)) | herbicidal effect on blackgrass (J) (blackgrass [10]; three weeks after application): 3 (Herbicidal rate of 40% or more and less than 70%) | herbicidal effect on lambsquarters (O) (lambsquarters [11]; three weeks after application): 5 (Herbicidal rate of 90% or more (almost completely withered)) | M: velvetleaf, herbicidal effect grade (velvetleaf [12]; [22]): 0 (Herbicidal rate of 5% or less (almost no effect)) | herbicidal effect on wild oat (I) (wild oat [13]; three weeks after application): 3 (Herbicidal rate of 40% or more and less than 70%) | herbicidal effect on green foxtail (G) (green foxtail [14]; three weeks after application): 5 (Herbicidal rate of 90% or more (almost completely withered)) | Herbicidal effect, B: Japanese bulrush (Japanese bulrush; [22]): 0 (Herbicidal rate of 5% or less (almost no effect)) | herbicidal effect on Chinese sprangletop (D) (Chinese sprangletop): 2 (Herbicidal rate of 20% or more and less than 40%) | herbicidal effect on Italian ryegrass (K) (Italian ryegrass [16]; three weeks after application): 0 (Herbicidal rate of 5% or less (almost no effect)) | herbicidal effect on southern crabgrass (F) (southern crabgrass [17]; three weeks after application): 5 (Herbicidal rate of 90% or more (almost completely withered)) | F: southern crabgrass, herbicidal effect grade (southern crabgrass [18]; [22]): 2 (Herbicidal rate of 20% or more and less than 40%) | herbicidal effect on rice flat sedge (E) (rice flat sedge): 4 (Herbicidal rate of 70% or more and less than 90%) | herbicidal effect on persian speedwell (R) (persian speedwell [19]; three weeks after application): 4 (Herbicidal rate of 70% or more and less than 90%) | H: barnyard grass, herbicidal effect grade (barnyard grass [20]; [22]): 0 (Herbicidal rate of 5% or less (almost no effect)) | O: lambsquarters, herbicidal effect grade (lambsquarters [21]; [22]): 3 (Herbicidal rate of 40% or more and less than 70%)
